Results as given in patent US4057635A, “Carbamates of ergolines and therapeutic compositions therewith” (Simes Societa Italiana Medicinali e Sintetici S.p.A., priority 1973, dated 1977).

How the values were obtained:
therapeutic index = assay type: in vivo
Source text: The active concentrations are comprised between 2 and 20 micrograms per ml. […] The range of the active dosages is comprised between 20 and 100 micrograms/kilogram e.v. In vitro, the compound XXXVIII releases the muscles of the aorta of rabbits at concentrations of 50-100 micrograms/ml. The therapeutic index is favourable for an indication of the product as an antispastic of the gastro-intestinal system and the biliary tract.
(§1) The active dosages are comprised between 5 and 20 micrograms/ml in vitro, and from 50 to 500 micrograms/kilogram e.v. The acute toxicity of the compound LI has proven to be extremely low and consequently the therapeutic index is favorable for its use as a spasmolytic of the smooth muscles of the vessels and organs other than vessels.

ileum = assay: spasmolytic activity on isolated ileum of guinea pigs
Source text: as §1
In addition, the compound IV acts on the trachea of guinea pigs as a releasing agent at the concentration of 0.5-1 microgram/ml. On the ileum of the same animals, as a spasmolytic at a concentration of 50-100 micrograms/ml and on the uterus and stomach of rats as an antiserotoninic at the concentration of 0.05-0.1 micrograms/ml. […] The compound on the basis of the pharmacological and toxicological properties which have been detected can be employed for the treatment of headaches.

central nervous system [1] = assay: stimulation of the central nervous system; details: in vivo
[2] = test system: muscles of the peripheral vessels; assay: spasmolytic effects in vivo on the muscles of the peripheral vessels; details: e.v.
Source text: as §1

deferent vessel = assay: spasmolytic activity on isolated deferent vessel of rats
Source text: as §1

bowel and vessel muscles [3] = assay: spasmolytic properties on the bowel and vessel muscles in vitro
Source text: as §1

acute toxicity = details: in vivo
Source text: as §1

bowel and vessel muscles [4] = assay: spasmolytic properties on the bowel and vessel muscles in vivo
Source text: as §1

[5] = test system: smooth muscles of the vessels; assay: antiserotoninic effects in vivo at the level of the smooth muscles of the vessels; details: e.v.
dogs = assay: peripheral vasoconstrictive hypertensive action in vivo, in dogs
[6] = test system: alpha-adrenergic receptors; assay: stimulation of the alpha-adrenergic receptors; details: on the basis of the tests carried out
central nervous system [7] = assay: antiserotoninic effects in vivo at the level of the central nervous system; details: s.c.

Question: Which therapeutic index (therapeutic index; as antispastic of the gastro-intestinal system and the biliary tract) does the source give for `CN1C[C@H](COC(=O)N2CCCCCC2)C[C@@H]2c3cccc4[nH]cc(c34)C[C@H]21` [compound XXXVIII, D-6-methyl-8β-(perhydroazepinylcarbonyloxymethyl)-ergoline] here?
Answer: Its therapeutic index is “favourable”.

Question: For `CC(Cc1ccccc1)NC(=O)OC[C@@H]1C=C2c3cccc4[nH]cc(c34)C[C@H]2N(C)C1` (stereo partly drawn) [compound XXV, D-6-methyl-8β-(α-methylphenethylaminocarbonyloxymethyl)-9,10-didehydroergoline], which spasmolytic activity (ileum) is on record?
Answer: Its spasmolytic activity is “considerable spasmolytic activity”.

Question: And the “stimulating effects on the central nervous system” value (central nervous system [1])?
Answer: Its value is “interesting actions which stimulated the central nervous system”.

Question: And the “dosages (spasmolytic effects on the muscles of the peripheral vessels)” value [2]?
Answer: Its value is 20-200 micrograms/kilogram.

Question: And the spasmolytic activity (deferent vessel)?
Answer: Its spasmolytic activity is “considerable spasmolytic activity”.

Question: Which results are given for `CC(Cc1ccccc1)NC(=O)OC[C@@H]1C[C@@H]2c3cccc4[nH]cc(c34)C[C@H]2N(C)C1` (stereo partly drawn) [compound LI, D-6-methyl-8β-(α-methylphenethylaminocarbonyloxymethyl)-ergoline]?
Answer: spasmolytic properties on the bowel and vessel muscles (bowel and vessel muscles [3]): retained; stimulating effects on the central nervous system (central nervous system [1]): lost the stimulating effects on the central nervous system; therapeutic index (therapeutic index; as spasmolytic of the smooth muscles of the vessels and organs other than vessels): favorable; acute toxicity (acute toxicity): extremely low; spasmolytic properties on the bowel and vessel muscles (bowel and vessel muscles [4]): retained

Question: Which results are given for `CN(C)C(=O)OC[C@@H]1C=C2c3cccc4[nH]cc(c34)C[C@H]2N(C)C1` [compound IV]?
Answer: active dosages (antiserotoninic, smooth muscles of the vessels) [5]: 5-10 micrograms/kilogram; dose dependence of the vasoconstrictive hypertensive effect (dogs; dogs and cats, e.v.): proportional to the dosage; peripheral vasoconstrictive hypertensive action (dogs; in vivo): strong peripheral vasoconstrictive hypertensive action; action on the alpha-adrenergic receptors [6]: stimulant of the alpha-adrenergic receptors; active dosages (antiserotoninic, central nervous system) (central nervous system [7]): 0.5-1 milligrams/kilograms
